# Values of other authors, collected in patent US20240216394A1, “GOLEXANOLONE FOR USE IN THE TREATMENT OF FATIGUE OR COGNITIVE IMPAIRMENT IN LIVER DISEASE PATIENTS” (Umecrine Cognition AB, priority 2021, published 2024).
# How the values were obtained:
# PBC-related fatigue = conditions: patients suffering from PBC-related fatigue
# [1] = system: rats following bile duct ligation (BDL)
Compound,Benefit in PBC-related fatigue (PBC-related fatigue),Effect on whole body fatigue [1]
CNCCC(Oc1ccc(C(F)(F)F)cc1)c1ccccc1 (stereo not shown) [Fluoxetine],neither have proven beneficial,–
Rituximab,neither have proven beneficial,–
NC(=O)C[S+]([O-])C(c1ccccc1)c1ccccc1 (stereo not shown) [Modafinil],neither have proven beneficial,–
dehydroepiandrosterone sulphate [DHEAS],–,positive effect
